# From patent publication US6737383B1, “Herbicidal oxadiazolidines” (priority 1999, dated 2004)
# What was measured:
# wheat = assay: Test B pre/postemergence wheat; type: in vivo, Triticum aestivum
# Outline: (§1)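 Test chemicals in a non-phytotoxic solvent mixture with surfactant were sprayed preemergence onto planted seeds and postemergence onto plants 2 to 18 cm tall (1- to 4-leaf stage). After twelve to sixteen days in a greenhouse, injury was visually rated against untreated controls from 0 (no effect) to 10 (complete control).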
# giant foxtail = assay: Test B pre/postemergence giant foxtail; type: in vivo, Setaria faberii
# Outline: as §1
# pigweed = assay: Test B pre/postemergence pigweed; type: in vivo, Amaranthus retroflexus
# Outline: as §1
# corn = assay: Test B pre/postemergence corn; type: in vivo, Zea mays
# Outline: as §1
# wild oat = assay: Test B pre/postemergence wild oat; type: in vivo, Avena fatua
# Outline: as §1
# crabgrass = assay: Test B pre/postemergence crabgrass; type: in vivo, Digitaria sanguinalis
# Outline: as §1
# sugar beet = assay: Test B pre/postemergence sugar beet; type: in vivo, Beta vulgaris
# Outline: as §1
# bedstraw = assay: Test B pre/postemergence bedstraw; type: in vivo, Galium aparine
# Outline: as §1
# rape = assay: Test B pre/postemergence rape; type: in vivo, Brassica napus
# Outline: as §1
# velvetleaf = assay: Test B pre/postemergence velvetleaf; type: in vivo, Abutilon theophrasti
# Outline: as §1
# soybean = assay: Test B pre/postemergence soybean; type: in vivo, Glycine max
# Outline: as §1
# morningglory = assay: Test B pre/postemergence morningglory; type: in vivo, Ipomoea hederacea
# Outline: as §1
# cocklebur = assay: Test B pre/postemergence cocklebur; type: in vivo, Xanthium strumarium
# Outline: as §1
# surinam grass = assay: Test B pre/postemergence surinam grass; type: in vivo, Brachiaria decumbens
# Outline: as §1
# blackgrass = assay: Test B pre/postemergence blackgrass; type: in vivo, Alopecurus myosuroides
# Outline: as §1
# purple nutsedge = assay: Test B pre/postemergence purple nutsedge; type: in vivo, Cyperus rotundus
# Outline: as §1
# [1] = Postemergence, Rate 62 g/ha, scale 0 to 10, 0 is no effect, 10 is complete control
# [2] = Postemergence, Rate 125 g/ha, scale of 0 to 10 where 0 is no effect and 10 is complete control
# [3] = Preemergence, Rate 62 g/ha, scale of 0 to 10 where 0 is no effect and 10 is complete control
# [4] = Preemergence, Rate 125 g/ha, scale of 0 to 10 where 0 is no effect and 10 is complete control
# [5] = Preemergence, Rate 250 g/ha, scale 0 (no effect) to 10 (complete control)
# [6] = Rate 250 g/ha, Postemergence, scale 0 to 10, 0 is no effect, 10 is complete control
# [7] = Rate 500 g/ha, Postemergence, scale 0 to 10, 0 is no effect, 10 is complete control
# [8] = Preemergence, Rate 500 g/ha, scale of 0 to 10 where 0 is no effect and 10 is complete control
structure (smiles),measurement,setting,value
CC(C)N(C(=O)n1oc(=O)n(C[C@H](C)Cl)c1=O)c1ccc(F)cc1F [Compound 714],"Plant response rating, Wheat",wheat; [1],0
same,Wheat plant response rating,wheat; [2],0
same,Wheat plant response rating,wheat; [3],0
same,"Plant response rating, Wheat",wheat; [4],4
same,Wheat plant response rating,wheat; [5],6
same,Wheat plant response rating,wheat; [6],3
same,Wheat plant response rating,wheat; [7],6
same,"Plant response rating, Giant foxtail",giant foxtail; [1],6
same,Giant foxtail plant response rating,giant foxtail; [2],6
same,Giant foxtail plant response rating,giant foxtail; [3],10
same,"Plant response rating, Giant foxtail",giant foxtail; [4],10
same,Giant foxtail plant response rating,giant foxtail; [5],10
same,Giant foxtail plant response rating,giant foxtail; [6],7
same,Giant foxtail plant response rating,giant foxtail; [7],8
same,"Plant response rating, Redroot pigweed",pigweed; [1],5
same,Redroot pigweed plant response rating,pigweed; [2],8
same,Redroot pigweed plant response rating,pigweed; [3],10
same,"Plant response rating, Redroot pigweed",pigweed; [4],9
same,Redroot pigweed plant response rating,pigweed; [5],10
same,Redroot pigweed plant response rating,pigweed; [6],9
same,Redroot pigweed plant response rating,pigweed; [7],9
same,"Plant response rating, Corn",corn; [1],0
same,Corn plant response rating,corn; [2],0
same,Corn plant response rating,corn; [3],0
same,"Plant response rating, Corn",corn; [4],0
same,Corn plant response rating,corn; [5],5
same,Corn plant response rating,corn; [6],0
same,Corn plant response rating,corn; [7],0
same,"Plant response rating, Wild oats",wild oat; [1],0
same,Wild oats plant response rating,wild oat; [2],0
same,Wild oats plant response rating,wild oat; [3],0
same,"Plant response rating, Wild oats",wild oat; [4],4
same,Wild oats plant response rating,wild oat; [5],6
same,Wild oats plant response rating,wild oat; [6],4
same,Wild oats plant response rating,wild oat; [7],9
same,"Plant response rating, Crabgrass",crabgrass; [1],4
same,Crabgrass plant response rating,crabgrass; [2],9
same,Crabgrass plant response rating,crabgrass; [3],10
same,"Plant response rating, Crabgrass",crabgrass; [4],10
same,Crabgrass plant response rating,crabgrass; [5],10
same,Crabgrass plant response rating,crabgrass; [6],9
same,Crabgrass plant response rating,crabgrass; [7],9
same,"Plant response rating, Sugarbeets",sugar beet; [1],0
same,Sugarbeets plant response rating,sugar beet; [2],6
same,Sugarbeets plant response rating,sugar beet; [3],2
same,"Plant response rating, Sugarbeets",sugar beet; [4],4
same,Sugarbeets plant response rating,sugar beet; [5],4
same,Sugarbeets plant response rating,sugar beet; [6],7
same,Sugarbeets plant response rating,sugar beet; [7],7
same,Bedstraw plant response rating,bedstraw; [2],3
same,Bedstraw plant response rating,bedstraw; [3],0
same,"Plant response rating, Bedstraw",bedstraw; [4],8
same,Bedstraw plant response rating,bedstraw; [5],9
same,"Plant response rating, Rape",rape; [1],5
same,Rape plant response rating,rape; [2],5
same,Rape plant response rating,rape; [3],2
same,"Plant response rating, Rape",rape; [4],3
same,Rape plant response rating,rape; [5],6
same,Rape plant response rating,rape; [6],8
same,Rape plant response rating,rape; [7],9
same,"Plant response rating, Velvetleaf",velvetleaf; [1],2
same,Velvetleaf plant response rating,velvetleaf; [2],2
same,Velvetleaf plant response rating,velvetleaf; [3],6
same,"Plant response rating, Velvetleaf",velvetleaf; [4],5
same,Velvetleaf plant response rating,velvetleaf; [5],2
same,Velvetleaf plant response rating,velvetleaf; [6],2
same,Velvetleaf plant response rating,velvetleaf; [7],3
same,"Plant response rating, Soybean",soybean; [1],2
same,Soybean plant response rating,soybean; [2],4
same,Soybean plant response rating,soybean; [3],0
same,"Plant response rating, Soybean",soybean; [4],0
same,Soybean plant response rating,soybean; [5],0
same,Soybean plant response rating,soybean; [6],4
same,Soybean plant response rating,soybean; [7],3
same,"Plant response rating, Morningglory",morningglory; [1],0
same,Morningglory plant response rating,morningglory; [3],0
same,"Plant response rating, Morningglory",morningglory; [4],2
same,Morningglory plant response rating,morningglory; [5],0
same,Morningglory plant response rating,morningglory; [6],2
same,Morningglory plant response rating,morningglory; [7],2
same,"Plant response rating, Cocklebur",cocklebur; [1],0
same,Cocklebur plant response rating,cocklebur; [2],2
same,Cocklebur plant response rating,cocklebur; [3],0
same,"Plant response rating, Cocklebur",cocklebur; [4],0
same,Cocklebur plant response rating,cocklebur; [5],0
same,"Plant response rating, Cocklebur",cocklebur; [8],0
same,Cocklebur plant response rating,cocklebur; [6],2
same,Cocklebur plant response rating,cocklebur; [7],3
same,"Plant response rating, B. signalgrass",surinam grass; [1],2
same,B. signalgrass plant response rating,surinam grass; [2],2
same,B. signalgrass plant response rating,surinam grass; [3],7
same,"Plant response rating, B. signalgrass",surinam grass; [4],9
same,B. signalgrass plant response rating,surinam grass; [5],10
same,"Plant response rating, B. signalgrass",surinam grass; [8],10
same,B. signalgrass plant response rating,surinam grass; [6],6
same,B. signalgrass plant response rating,surinam grass; [7],6
same,"Plant response rating, Blackgrass",blackgrass; [1],7
same,Blackgrass plant response rating,blackgrass; [2],7
same,Blackgrass plant response rating,blackgrass; [3],7
same,"Plant response rating, Blackgrass",blackgrass; [4],8
same,Blackgrass plant response rating,blackgrass; [5],9
same,"Plant response rating, Blackgrass",blackgrass; [8],9
same,Blackgrass plant response rating,blackgrass; [6],6
same,Blackgrass plant response rating,blackgrass; [7],7
same,"Plant response rating, Nutsedge",purple nutsedge; [1],0
same,Nutsedge plant response rating,purple nutsedge; [2],0
same,Nutsedge plant response rating,purple nutsedge; [3],0
same,"Plant response rating, Nutsedge",purple nutsedge; [4],0
same,Nutsedge plant response rating,purple nutsedge; [5],0
same,Nutsedge plant response rating,purple nutsedge; [6],5
same,Nutsedge plant response rating,purple nutsedge; [7],5
